These compounds were tested against T1, mouse TRPM3α2 (mTRPM3) ion channel (Mus musculus, UniProt J9SQF3) (assay: Monitoring the TRPM3 ion channel driven Ca2+ uptake (Fluo-4 AM assay)). Settings: TRPM3 overexpressing flip-in HEK293 cells, channel stimulated with Pregnenolone sulfate (PS) 50 μM.
T1 construct: expressed in transfected cells; host or cells: flip-in HEK293
Format: cell-based
Protocol: Monitoring the TRPM3 ion channel driven Ca^2+ uptake.
In order to monitor the inhibition of the mouse TRPM3α2 (mTRPM3) ion channel by the compounds of the invention, a cellular system making use of an mTRPM3alpha2 or hTRPM3 overexpressing cell line (flip-in HEK293) was used. The TRPM3 channel was stimulated/opened with Pregnenolone sulfate (PS) (50 μM) which results in Ca^2+ influx.
For mTRPM3, the intracellular Ca^2+ was measured with a Calcium responsive dye, Fluor-4 AM ester (Invitrogen). Cells were cultured until a confluence of 80-90%, washed with Versene (Invitrogen) and detached from the surface by a short incubation with 0.05% Trypsin (Invitrogen). The trypsination process was stopped by the addition of complete cell culture medium (DMEM, glutamax,10% FCS,NEAA,Pen-Strep). Cells were collected and resuspended in Krebs buffer without Calcium at RT.
Prior the cell seeding (±2000 cells/well into a black, 384 well plate (Greiner)) the diluted compound was added in the assay plate, together with the PS dissolved in Krebs buffer containing Calcium. […] Directly after cell addition the plates were read on an Envision fluorescence reader (Perkin Elmer) by an Excitation of 485 nm and emission at 535 nm.
Channel inhibition was calculated compared to a non-PS stimulated control versus a condition stimulated with PS (50 μM) with vehicle. The ability of the compounds of the invention to inhibit this activity was determined as: Percentage inhibition=[1−((RFU determined for sample with test compound present−RFU determined for sample with positive control inhibitor) divided by (RFU determined in the presence of vehicle−RFU determined for sample with positive control inhibitor))]*100.
The activities of the Example compounds tested are depicted in the table below. The activity ranges A, B and C refer to IC50 values in the Fluo-4 AM assay as follows: “A”: IC50<1 μM; “B”: 1 μM≤IC50≤20 μM and “C”: IC50>20 μM

T1 sequence (J9SQF3 1-1709 isoform J9SQF3-12): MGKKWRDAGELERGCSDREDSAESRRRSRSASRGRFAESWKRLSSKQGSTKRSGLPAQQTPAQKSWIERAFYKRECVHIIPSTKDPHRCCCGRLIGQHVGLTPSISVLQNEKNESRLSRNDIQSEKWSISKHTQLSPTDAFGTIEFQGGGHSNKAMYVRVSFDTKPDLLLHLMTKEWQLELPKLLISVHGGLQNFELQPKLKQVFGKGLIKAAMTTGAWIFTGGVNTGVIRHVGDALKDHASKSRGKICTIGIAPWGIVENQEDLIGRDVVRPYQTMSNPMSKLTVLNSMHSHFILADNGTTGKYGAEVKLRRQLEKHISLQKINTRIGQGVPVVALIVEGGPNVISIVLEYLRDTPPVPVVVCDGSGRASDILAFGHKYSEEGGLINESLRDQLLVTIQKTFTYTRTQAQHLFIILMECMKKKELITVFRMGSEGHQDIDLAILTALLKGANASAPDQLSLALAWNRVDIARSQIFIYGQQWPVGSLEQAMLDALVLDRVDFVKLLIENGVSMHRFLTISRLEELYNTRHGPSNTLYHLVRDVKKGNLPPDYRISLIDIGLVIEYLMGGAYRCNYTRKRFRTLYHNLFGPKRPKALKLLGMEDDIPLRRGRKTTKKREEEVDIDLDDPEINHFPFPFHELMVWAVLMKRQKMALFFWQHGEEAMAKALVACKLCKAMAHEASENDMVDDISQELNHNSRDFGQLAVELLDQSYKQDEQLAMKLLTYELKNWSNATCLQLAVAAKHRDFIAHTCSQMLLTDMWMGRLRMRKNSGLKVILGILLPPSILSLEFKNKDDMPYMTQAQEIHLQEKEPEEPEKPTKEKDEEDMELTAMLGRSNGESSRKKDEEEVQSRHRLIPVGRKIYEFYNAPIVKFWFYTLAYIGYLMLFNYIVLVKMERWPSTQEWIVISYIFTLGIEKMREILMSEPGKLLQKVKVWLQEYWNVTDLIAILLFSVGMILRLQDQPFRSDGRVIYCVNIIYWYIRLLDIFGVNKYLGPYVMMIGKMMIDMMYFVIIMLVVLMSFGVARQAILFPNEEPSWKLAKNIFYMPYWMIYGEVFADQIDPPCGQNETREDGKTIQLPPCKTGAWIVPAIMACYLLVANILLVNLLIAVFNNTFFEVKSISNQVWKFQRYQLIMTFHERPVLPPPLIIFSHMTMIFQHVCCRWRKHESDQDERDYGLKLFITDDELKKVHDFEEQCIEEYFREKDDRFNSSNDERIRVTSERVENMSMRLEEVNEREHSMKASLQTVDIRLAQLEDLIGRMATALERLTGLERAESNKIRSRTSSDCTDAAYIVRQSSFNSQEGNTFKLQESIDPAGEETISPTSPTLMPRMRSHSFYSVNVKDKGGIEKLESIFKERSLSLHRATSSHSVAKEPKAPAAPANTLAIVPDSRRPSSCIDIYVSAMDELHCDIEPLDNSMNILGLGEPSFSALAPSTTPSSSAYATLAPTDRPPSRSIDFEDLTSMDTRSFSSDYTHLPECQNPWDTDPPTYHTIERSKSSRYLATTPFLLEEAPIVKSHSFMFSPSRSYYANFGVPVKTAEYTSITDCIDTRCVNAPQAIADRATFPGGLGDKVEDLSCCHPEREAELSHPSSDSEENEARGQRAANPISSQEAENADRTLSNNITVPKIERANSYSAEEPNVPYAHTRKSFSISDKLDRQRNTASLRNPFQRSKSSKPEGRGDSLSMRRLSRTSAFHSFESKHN

Cc1nc(COc2ccc3sc(C)c(C(=O)NC(C)(CO)C(N)=O)c3c2)cs1 (single isomer, unassigned) [Cpd 015 - En1, 3-hydroxy-2-methyl-2-({2-methyl-5-[(2-methyl-1,3-thiazol-4-yl)methoxy]-1-benzothiophen-3-yl}formamido)propanamide] was tested. Which IC50 did it give?
The IC50 was under 1000 nM.

For Cc1nc(COc2ccc3sc(C)c(C(=O)NC(C)(CO)C(N)=O)c3c2)cs1 (single isomer, unassigned) [Cpd 015 - En2, 3-hydroxy-2-methyl-2-({2-methyl-5-[(2-methyl-1,3-thiazol-4-yl)methoxy]-1-benzothiophen-3-yl}formamido)propanamide], which IC50 is on record?
Its IC50 is under 1000 nM.

With Cc1ncc(COc2ccc3sc(C)c(C(=O)NC(C)(CO)C(N)=O)c3c2)s1 (single isomer, unassigned) [Cpd 019 - En1, 3-hydroxy-2-methyl-2-({2-methyl-5-[(2-methyl-1,3-thiazol-5-yl)methoxy]-1-benzothiophen-3-yl}formamido)propanamide] as the compound, how does the IC50 read?
The IC50 was under 1000 nM.

Cc1ncc(COc2ccc3sc(C)c(C(=O)NC(C)(CO)C(N)=O)c3c2)s1 (single isomer, unassigned) [Cpd 019 - En2, 3-hydroxy-2-methyl-2-({2-methyl-5-[(2-methyl-1,3-thiazol-5-yl)methoxy]-1-benzothiophen-3-yl}formamido)propanamide] was tested. Which IC50 did it give?
Its IC50 is under 1000 nM.

For Cc1ncsc1COc1ccc2sc(C)c(C(=O)NC3CCNCC3(F)F)c2c1 (single isomer, unassigned) [Cpd 042 - En1, N-(3,3-difluoropiperidin-4-yl)-2-methyl-5-[(4-methyl-1,3-thiazol-5-yl)methoxy]-1-benzothiophene-3-carboxamide], which IC50 is on record?
The IC50 was under 1000 nM.

With Cc1ncsc1COc1ccc2sc(C)c(C(=O)NC3CCNCC3(F)F)c2c1 (single isomer, unassigned) [Cpd 042 - En2, N-(3,3-difluoropiperidin-4-yl)-2-methyl-5-[(4-methyl-1,3-thiazol-5-yl)methoxy]-1-benzothiophene-3-carboxamide] as the compound, how does the IC50 read?
Its IC50 is under 1000 nM.

Cc1sc2ccc(OCC3CCOCC3)cc2c1C(=O)NC(C)(CO)C(N)=O (single isomer, unassigned) [Cpd 067 - En1, 3-hydroxy-2-methyl-2-({2-methyl-5-[(oxan-4-yl)methoxy]-1-benzothiophen-3-yl}formamido)propanamide] was tested. Which IC50 did it give?
The IC50 was over 20000 nM.

Cc1sc2ccc(OCC3CCOCC3)cc2c1C(=O)NC(C)(CO)C(N)=O (single isomer, unassigned) [Cpd 067 - En2, 3-hydroxy-2-methyl-2-({2-methyl-5-[(oxan-4-yl)methoxy]-1-benzothiophen-3-yl}formamido)propanamide] was tested. Which IC50 did it give?
Its IC50 is 1000 to 20000 nM.

Cc1sc2ccc(OCC3COC3)cc2c1C(=O)NC(C)(CO)C(N)=O (single isomer, unassigned) [Cpd 068 - En1, 3-hydroxy-2-methyl-2-({2-methyl-5-[(oxetan-3-yl)methoxy]-1-benzothiophen-3-yl}formamido)propanamide] was tested. Which IC50 did it give?
The IC50 was over 20000 nM.

Cc1sc2ccc(OCC3COC3)cc2c1C(=O)NC(C)(CO)C(N)=O (single isomer, unassigned) [Cpd 068 - En2, 3-hydroxy-2-methyl-2-({2-methyl-5-[(oxetan-3-yl)methoxy]-1-benzothiophen-3-yl}formamido)propanamide] was tested. Which IC50 did it give?
The IC50 was 1000 to 20000 nM.

Cc1sc2ccc(OCc3ccccc3F)cc2c1C(=O)NC1CCNCC1(F)F (single isomer, unassigned) [Cpd 095 - En1, N-(3,3-difluoropiperidin-4-yl)-5-[(2-fluorophenyl)methoxy]-2-methyl-1-benzothiophene-3-carboxamide] was tested. Which IC50 did it give?
The IC50 was 1000 to 20000 nM.

With Cc1sc2ccc(OCc3ccccc3F)cc2c1C(=O)NC1CCNCC1(F)F (single isomer, unassigned) [Cpd 095 - En2, N-(3,3-difluoropiperidin-4-yl)-5-[(2-fluorophenyl)methoxy]-2-methyl-1-benzothiophene-3-carboxamide] as the compound, how does the IC50 read?
The IC50 was 1000 to 20000 nM.

For CNC(=O)C(C)(CO)NC(=O)c1c(C)sc2ccc(OCc3cnc(C)s3)cc12 (single isomer, unassigned) [Cpd 132 - En1, 3-hydroxy-N,2-dimethyl-2-({2-methyl-5-[(2-methyl-1,3-thiazol-5-yl)methoxy]-1-benzothiophen-3-yl}formamido)propanamide], which IC50 is on record?
Its IC50 is under 1000 nM.

For CNC(=O)C(C)(CO)NC(=O)c1c(C)sc2ccc(OCc3cnc(C)s3)cc12 (single isomer, unassigned) [Cpd 132 - En2, 3-hydroxy-N,2-dimethyl-2-({2-methyl-5-[(2-methyl-1,3-thiazol-5-yl)methoxy]-1-benzothiophen-3-yl}formamido)propanamide], which IC50 is on record?
Its IC50 is under 1000 nM.

For CNC(=O)C1(NC(=O)c2c(C)sc3ccc(OCc4cnc(C)s4)cc23)CCOC1 (single isomer, unassigned) [Cpd 133 - En1, N-methyl-3-{2-methyl-5-[(2-methyl-1,3-thiazol-5-yl)methoxy]-1-benzothiophene-3-amido}oxolane-3-carboxamide], which IC50 is on record?
The IC50 was under 1000 nM.

How did the IC50 turn out when CNC(=O)C1(NC(=O)c2c(C)sc3ccc(OCc4cnc(C)s4)cc23)CCOC1 (single isomer, unassigned) [Cpd 133 - En2, N-methyl-3-{2-methyl-5-[(2-methyl-1,3-thiazol-5-yl)methoxy]-1-benzothiophene-3-amido}oxolane-3-carboxamide] was run?
The IC50 was under 1000 nM.

Cc1sc2ccc(OCc3ccccc3)cc2c1C(=O)N[C@H](C)C(N)=O [Cpd 001, (2R)-2-{[5-(benzyloxy)-2-methyl-1-benzothiophen-3-yl]formamido}propanamide] was tested. Which IC50 did it give?
Its IC50 is under 1000 nM.

How did the IC50 turn out when Cc1sc2ccc(OCc3ccccc3F)cc2c1C(=O)N[C@H](C)C(N)=O [Cpd 002, (2R)-2-({5-[(2-fluorophenyl)methoxy]-2-methyl-1-benzothiophen-3-yl}formamido)propanamide] was run?
The IC50 was under 1000 nM.

Cc1sc2ccc(OCc3ccccn3)cc2c1C(=O)N[C@H](C)C(N)=O [Cpd 003, (2R)-2-({2-methyl-5-[(pyridin-2-yl)methoxy]-1-benzothiophen-3-yl}formamido)propanamide] was tested. Which IC50 did it give?
Its IC50 is under 1000 nM.

How did the IC50 turn out when Cc1sc2ccc(OCc3cccnc3C(F)(F)F)cc2c1C(=O)N[C@H](C)C(N)=O [Cpd 004, (2R)-2-[(2-methyl-5-{[2-(trifluoromethyl)pyridin-3-yl]methoxy}-1-benzothiophen-3-yl)formamido]propanamide] was run?
The IC50 was under 1000 nM.

With Cc1ncc(COc2ccc3sc(C)c(C(=O)N[C@H](C)C(N)=O)c3c2)s1 [Cpd 005, (2R)-2-({2-methyl-5-[(2-methyl-1,3-thiazol-5-yl)methoxy]-1-benzothiophen-3-yl}formamido)propanamide] as the compound, how does the IC50 read?
The IC50 was under 1000 nM.

For Cc1ncsc1COc1ccc2sc(C)c(C(=O)N[C@H](C)C(N)=O)c2c1 [Cpd 006, (2R)-2-({2-methyl-5-[(4-methyl-1,3-thiazol-5-yl)methoxy]-1-benzothiophen-3-yl}formamido)propanamide], which IC50 is on record?
The IC50 was under 1000 nM.

Cc1sc2ccc(OCc3ccccc3F)cc2c1C(=O)N[C@@H](C)C(N)=O [Cpd 007, (2S)-2-({5-[(2-fluorophenyl)methoxy]-2-methyl-1-benzothiophen-3-yl}formamido)propanamide] was tested. Which IC50 did it give?
Its IC50 is under 1000 nM.

Which IC50 does the source give for Cc1sc2ccc(OCc3ccccn3)cc2c1C(=O)N[C@@H](C)C(N)=O [Cpd 008, (2S)-2-({2-methyl-5-[(pyridin-2-yl)methoxy]-1-benzothiophen-3-yl}formamido)propanamide] here?
The IC50 was under 1000 nM.

How did the IC50 turn out when Cc1sc2ccc(OCc3cccnc3C(F)(F)F)cc2c1C(=O)N[C@@H](C)C(N)=O [Cpd 009, (2S)-2-[(2-methyl-5-{[2-(trifluoromethyl)pyridin-3-yl]methoxy}-1-benzothiophen-3-yl)formamido]propanamide] was run?
The IC50 was under 1000 nM.

For Cc1sc2ccc(OCc3cccnc3O)cc2c1C(=O)N[C@@H](C)C(N)=O [Cpd 010, (2S)-2-({5-[(2-hydroxypyridin-3-yl)methoxy]-2-methyl-1-benzothiophen-3-yl}formamido)propanamide], which IC50 is on record?
Its IC50 is under 1000 nM.

Cc1ncc(COc2ccc3sc(C)c(C(=O)N[C@@H](C)C(N)=O)c3c2)s1 [Cpd 011, (2S)-2-({2-methyl-5-[(2-methyl-1,3-thiazol-5-yl)methoxy]-1-benzothiophen-3-yl}formamido)propanamide] was tested. Which IC50 did it give?
Its IC50 is under 1000 nM.

With Cc1ncsc1COc1ccc2sc(C)c(C(=O)N[C@@H](C)C(N)=O)c2c1 [Cpd 012, (2S)-2-({2-methyl-5-[(4-methyl-1,3-thiazol-5-yl)methoxy]-1-benzothiophen-3-yl}formamido)propanamide] as the compound, how does the IC50 read?
Its IC50 is under 1000 nM.

Which IC50 does the source give for CC(C)(CNC(=O)c1c(C(F)F)sc2ccc(OCc3ccccc3)cc12)N1CCOCC1 [Cpd 013, 5-(benzyloxy)-2-(difluoromethyl)-N-[2-methyl-2-(morpholin-4-yl)propyl]-1-benzothiophene-3-carboxamide] here?
The IC50 was 1000 to 20000 nM.

Which IC50 does the source give for CC(C)(O)CNC(=O)c1c(C(F)F)sc2ccc(OCc3ccccc3)cc12 [Cpd 014, 5-(benzyloxy)-2-(difluoromethyl)-N-(2-hydroxy-2-methylpropyl)-1-benzothiophene-3-carboxamide] here?
The IC50 was over 20000 nM.

From patent publication US20250346569A1, “NEW DERIVATIVES FOR TREATING TRPM3 MEDIATED DISORDERS” (Katholieke Universiteit Leuven, priority 2022, published 2025)
